{"source": "patent US7652143B2", "about": "“Cyclic ureas used as inhibitors of metalloproteases” (sanofi-aventis Deutschland GmbH, priority 2004, dated 2010)", "key": {"human ADAMTS-4 protease": {"target": "T1, human ADAMTS-4 protease (Homo sapiens, UniProt O75173)", "T1 sequence (O75173 213-837)": "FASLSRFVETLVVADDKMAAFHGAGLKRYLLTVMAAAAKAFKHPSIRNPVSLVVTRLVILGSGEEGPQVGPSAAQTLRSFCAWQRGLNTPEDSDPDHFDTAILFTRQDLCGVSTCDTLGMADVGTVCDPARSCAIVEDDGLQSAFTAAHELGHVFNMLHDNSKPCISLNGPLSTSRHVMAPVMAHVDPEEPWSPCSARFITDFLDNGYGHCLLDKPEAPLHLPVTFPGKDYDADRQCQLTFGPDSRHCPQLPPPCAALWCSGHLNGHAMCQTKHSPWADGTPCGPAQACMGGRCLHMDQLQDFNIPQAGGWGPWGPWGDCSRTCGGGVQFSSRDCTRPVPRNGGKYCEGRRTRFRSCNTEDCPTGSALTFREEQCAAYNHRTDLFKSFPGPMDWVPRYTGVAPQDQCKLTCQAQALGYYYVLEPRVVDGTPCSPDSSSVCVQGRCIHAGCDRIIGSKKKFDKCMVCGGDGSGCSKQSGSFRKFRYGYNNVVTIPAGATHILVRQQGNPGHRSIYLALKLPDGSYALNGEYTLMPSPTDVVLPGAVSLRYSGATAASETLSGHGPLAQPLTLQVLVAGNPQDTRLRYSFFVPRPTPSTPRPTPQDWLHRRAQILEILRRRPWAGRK", "assay": "Inhibition of ADAMTS-4 activity (rAgg1mut substrate, neo-epitope ELISA)", "assay_type": "biochemical", "conditions": "recombinant human ADAMTS-4, rAgg1mut substrate"}, "MMP13": {"target": "T2, MMP13 (Homo sapiens, UniProt P45452)", "T2 construct": "purchased Biotrend, Roche, Boehringer Mannheim", "assay": "Inhibition of MMP 13 activity (fluorimetric peptide substrate cleavage)", "assay_type": "biochemical", "conditions": "recombinant enzyme, APMA activation, pH 7.5 or pH 6.5, fluorimeter"}, "[1]": {"target": "T3, TNFα-converting enzyme (TACE) (Homo sapiens, UniProt P78536)", "T3 construct": "purchased R&D Systems", "T3 sequence (P78536 215-824)": "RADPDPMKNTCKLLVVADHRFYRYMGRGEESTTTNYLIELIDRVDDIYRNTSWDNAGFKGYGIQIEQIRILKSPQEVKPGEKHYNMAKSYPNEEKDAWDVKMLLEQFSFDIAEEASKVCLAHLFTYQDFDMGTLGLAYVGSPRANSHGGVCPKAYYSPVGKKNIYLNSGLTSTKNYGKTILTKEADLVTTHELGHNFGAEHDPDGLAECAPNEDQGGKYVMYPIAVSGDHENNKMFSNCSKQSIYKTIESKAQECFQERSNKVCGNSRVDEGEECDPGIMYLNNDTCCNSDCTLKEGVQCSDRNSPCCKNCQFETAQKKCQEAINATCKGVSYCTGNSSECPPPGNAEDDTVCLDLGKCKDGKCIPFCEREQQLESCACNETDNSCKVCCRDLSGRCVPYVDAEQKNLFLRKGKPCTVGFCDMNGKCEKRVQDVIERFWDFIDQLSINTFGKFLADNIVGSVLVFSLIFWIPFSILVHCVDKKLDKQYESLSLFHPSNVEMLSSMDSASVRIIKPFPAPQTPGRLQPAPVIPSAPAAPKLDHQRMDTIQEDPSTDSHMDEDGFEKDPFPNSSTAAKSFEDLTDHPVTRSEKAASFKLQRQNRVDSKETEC", "assay": "Inhibition of TACE activity (fluorimetric peptide substrate cleavage)", "assay_type": "biochemical", "description": "The activity of the cyclic urea derivatives of the invention was tested in various in vitro assay systems for inhibitory activity on the proteases ADAMTS-4 and TNFα-converting enzyme (TACE) and on matrix-degrading metalloproteases (MMP13).\nThe activity in relation to TACE was measured using a commercially available, recombinantly prepared TACE protease (R&D Systems) and the substrate MCA-ProLeuAlaGlnAlaVal-Dpa-ArgSerSerSerArg-NH2 (Bachem)."}, "[2]": {"system": "primary bovine chondrocytes", "assay": "Inhibition of proteoglycan liberation from IL1α-stimulated primary bovine chondrocyte cultures", "assay_type": "cell-based", "conditions": "Bos taurus, alginate culture, 5 ng/ml human IL1α, 16 hours, dimethylmethylene blue dye test", "description": "The proteoglycan degradation was determined using primary bovine chondrocytes which were isolated from the cartilage of the metacarpophalangeal joint of cattle about 6 months old and cultured in an alginate matrix at 37° C. and 5% CO2 for 3 weeks. Stimulation of ˜160 000 cells with 5 ng/ml human IL1α was followed after 16 hours by determination of the liberated amount of proteoglycan by means of a commercially available dimethylmethylene blue dye test system (Biocolor Ltd.)."}, "[3]": {"conditions": "recombinant TACE (R&D Systems), MCA peptide substrate, fluorimeter, read-out: Inhibition of TACE activity (IC50)"}}, "note": "Structures can show the parent of a compound that is named as a salt. Where two headings read alike, the source gives them in different places.", "data": [{"molecule": "2-(3-Biphenyl-4-ylmethyl-2-oxoimidazolidin-1-yl)-N-hydroxy-3-methylbutyramide [Example 6]", "values": [{"measurement": "IC50", "setting": "human ADAMTS-4 protease", "value": 9.06, "unit": "µM"}]}, {"molecule": "CC(C)C(C(=O)NO)N1CCN(Cc2ccc(OCc3ccccc3)cc2)C1=O", "note": "(stereo not drawn) [Example 1, 2-(3-(4-Benzyloxybenzyl)-2-oxoimidazolidin-1-yl)-N-hydroxy-3-methylbutyramide]", "values": [{"measurement": "IC50", "setting": "MMP13", "value": 5, "unit": "µM"}, {"measurement": "IC50", "setting": "[1]; [3]", "value": 2.47, "unit": "µM"}, {"measurement": "IC50", "setting": "[2]", "value": "> 50", "unit": "µM"}, {"measurement": "IC50", "setting": "human ADAMTS-4 protease", "value": 2.1, "unit": "µM"}]}, {"molecule": "CC(C)C(C(=O)NO)N1CCN(c2ccc(OCc3ccccc3)cc2)C1=O", "note": "(stereo not drawn) [Example 2, 2-(3-(4-Benzyloxyphenyl)-2-oxoimidazolidin-1-yl)-N-hydroxy-3-methylbutyramide]", "values": [{"measurement": "IC50", "setting": "human ADAMTS-4 protease", "value": 55, "unit": "µM"}]}, {"molecule": "CC(C)C(C(=O)NO)N1CCN(Cc2cccc(OCc3ccccc3)c2)C1=O", "note": "(stereo not drawn) [Example 3, 2-(3-(3-Benzyloxybenzyl)-2-oxoimidazolidin-1-yl)-N-hydroxy-3-methylbutyramide]", "values": [{"measurement": "IC50", "setting": "[1]; [3]", "value": 2, "unit": "µM"}]}, {"molecule": "CC(C)C(C(=O)NO)N1CCN(Cc2ccc(Oc3ccccc3)cc2)C1=O", "note": "(stereo not drawn) [Example 4, N-Hydroxy-3-methyl-2-(2-oxo-3-(4-phenoxybenzyl)imidazolidin-1-yl)-butyramide]", "values": [{"measurement": "IC50", "setting": "MMP13", "value": 0.08, "unit": "µM"}, {"measurement": "IC50", "setting": "[1]; [3]", "value": 5, "unit": "µM"}, {"measurement": "IC50", "setting": "human ADAMTS-4 protease", "value": 1.33, "unit": "µM"}]}, {"molecule": "CC(C)C(C(=O)NO)N1CCN(Cc2ccc(OCc3ccccc3)nc2)C1=O", "note": "(stereo not drawn) [Example 5, 2-(3-(6-Benzyloxypyridin-3-ylmethyl)-2-oxoimidazolidin-1-yl)-N-hydroxy-3-methylbutyramide]", "values": [{"measurement": "IC50", "setting": "human ADAMTS-4 protease", "value": 10, "unit": "µM"}]}, {"molecule": "COc1ccc(C2CN(Cc3ccccc3)C(=O)N2C(C(=O)NO)C(C)C)cc1", "note": "(stereo not drawn) [Example 7, 2-(3-Benzyl-5-(4-methoxyphenyl)-2-oxoimidazolidin-1-yl)-N-hydroxy-3-methylbutyramide]", "values": [{"measurement": "IC50", "setting": "MMP13", "value": 0.01, "unit": "µM"}, {"measurement": "IC50", "setting": "[1]", "value": 9, "unit": "µM"}]}, {"molecule": "CC(C)C(C(=O)NO)N1CCN(Cc2cccc(O)c2)C1=O", "note": "(stereo not drawn) [Example 9, N-Hydroxy-2-(3-(3-hydroxybenzyl)-2-oxoimidazolidin-1-yl)-3-methylbutyramide]", "values": [{"measurement": "IC50", "setting": "[1]; [3]", "value": 3.04, "unit": "µM"}, {"measurement": "IC50", "setting": "human ADAMTS-4 protease", "value": 72.4, "unit": "µM"}]}, {"molecule": "CC(C)C(C(=O)NO)N1CCN(Cc2ccc(OCc3ccncc3)cc2)C1=O", "note": "(stereo not drawn) [Example 10, N-Hydroxy-3-methyl-2-{2-oxo-3-(4-(pyridin-4-ylmethoxy)benzyl)imidazolidin-1-yl}-butyramide; compound with TFA]", "values": [{"measurement": "IC50", "setting": "MMP13", "value": 4, "unit": "µM"}, {"measurement": "IC50", "setting": "[1]", "value": 1.14, "unit": "µM"}, {"measurement": "IC50", "setting": "[2]", "value": "> 50", "unit": "µM"}, {"measurement": "IC50", "setting": "human ADAMTS-4 protease", "value": 0.9, "unit": "µM"}]}, {"molecule": "CC(C)C(C(=O)NO)N1CCN(Cc2ccc(OCc3cccnc3)cc2)C1=O", "note": "(stereo not drawn) [Example 11, N-Hydroxy-3-methyl-2-[2-oxo-3-(4-(pyridin-3-ylmethoxy)benzyl)imidazolidin-1-yl]-butyramide with TFA]", "values": [{"measurement": "IC50", "setting": "MMP13", "value": 5.4, "unit": "µM"}, {"measurement": "IC50", "setting": "[1]; [3]", "value": 3, "unit": "µM"}, {"measurement": "IC50", "setting": "human ADAMTS-4 protease", "value": 7.8, "unit": "µM"}]}, {"molecule": "CC(C)C(C(=O)NO)N1CCN(Cc2ccc(OCc3ccccn3)cc2)C1=O", "note": "(stereo not drawn) [Example 12, N-Hydroxy-3-methyl-2-{2-oxo-3-(4-(pyridin-2-ylmethoxy)benzyl)imidazolidin-1-yl}butyramide with TFA]", "values": [{"measurement": "IC50", "setting": "[1]; [3]", "value": 8, "unit": "µM"}, {"measurement": "IC50", "setting": "human ADAMTS-4 protease", "value": 7, "unit": "µM"}]}, {"molecule": "CC#CCOc1ccc(CN2CCN(C(C(=O)NO)C(C)C)C2=O)cc1", "note": "(stereo not drawn) [Example 13, 2-(3-(4-But-2-ynyloxybenzyl)-2-oxoimidazolidin-1-yl)-N-hydroxy-3-methylbutyramide]", "values": [{"measurement": "IC50", "setting": "[1]; [3]", "value": 5, "unit": "µM"}]}, {"molecule": "Cc1cc(COc2ccc(CN3CCN(C(C(=O)NO)C(C)C)C3=O)cc2)c2ccccc2n1", "note": "(stereo not drawn) [Example 14, N-Hydroxy-3-methyl-2-{3-(4-(2-methylquinolin-4-ylmethoxy)benzyl)-2-oxoimidazolidin-1-yl}butyramide with TFA]", "values": [{"measurement": "IC50", "setting": "[1]; [3]", "value": 0.01, "unit": "µM"}, {"measurement": "IC50", "setting": "[2]", "value": 12.9, "unit": "µM"}, {"measurement": "IC50", "setting": "human ADAMTS-4 protease", "value": 1.14, "unit": "µM"}]}, {"molecule": "COc1ccc(CC2CN(Cc3ccccc3)C(=O)N2C(C(=O)NO)C(C)C)cc1", "note": "(stereo not drawn) [Example 15, 2-(3-Benzyl-5-(4-methoxybenzyl)-2-oxoimidazolidin-1-yl)-N-hydroxy-3-methylbutyramide]", "values": [{"measurement": "IC50", "setting": "MMP13", "value": 0.4, "unit": "µM"}, {"measurement": "IC50", "setting": "[1]; [3]", "value": 8, "unit": "µM"}, {"measurement": "IC50", "setting": "human ADAMTS-4 protease", "value": 17, "unit": "µM"}]}, {"molecule": "COc1ccc(CC2CN(Cc3ccc(OCc4ccccc4)cc3)C(=O)N2C(C(=O)NO)C(C)C)cc1", "note": "(stereo not drawn) [Example 16, 2-(3-(4-Benzyloxybenzyl)-5-(4-methoxybenzyl)-2-oxoimidazolidin-1-yl)-N-hydroxy-3-methylbutyramide]", "values": [{"measurement": "IC50", "setting": "MMP13", "value": 0.42, "unit": "µM"}, {"measurement": "IC50", "setting": "[1]; [3]", "value": 3.08, "unit": "µM"}, {"measurement": "IC50", "setting": "[2]", "value": 25.5, "unit": "µM"}, {"measurement": "IC50", "setting": "human ADAMTS-4 protease", "value": 1.39, "unit": "µM"}]}, {"molecule": "COc1ccc(CC2CN(C)C(=O)N2C(C(=O)NO)C(C)C)cc1", "note": "(stereo not drawn) [Example 17, N-Hydroxy-2-(5-(4-methoxybenzyl)-3-methyl-2-oxoimidazolidin-1-yl)-3-methylbutyramide]", "values": [{"measurement": "IC50", "setting": "MMP13", "value": 3.17, "unit": "µM"}]}, {"molecule": "CC(C)C(C(=O)NO)N1C(=O)N(Cc2ccc(OCc3ccccc3)cc2)CC1Cc1ccc2c(c1)OCO2", "note": "(stereo not drawn) [Example 18, 2-(5-Benzo(1,3)dioxol-5-ylmethyl-3-(4-benzyloxybenzyl)-2-oxoimidazolidin-1-yl)-N-hydroxy-3-methylbutyramide]", "values": [{"measurement": "IC50", "setting": "MMP13", "value": 0.6, "unit": "µM"}, {"measurement": "IC50", "setting": "[1]; [3]", "value": 1.9, "unit": "µM"}, {"measurement": "IC50", "setting": "human ADAMTS-4 protease", "value": 3.16, "unit": "µM"}]}, {"molecule": "CC(C)C(C(=O)NO)N1C(=O)N(Cc2ccccc2)CC1Cc1ccc2c(c1)OCO2", "note": "(stereo not drawn) [Example 19, 2-(5-Benzo(1,3)dioxol-5-ylmethyl-3-benzyl-2-oxoimidazolidin-1-yl)-N-hydroxy-3-methylbutyramide]", "values": [{"measurement": "IC50", "setting": "MMP13", "value": 0.34, "unit": "µM"}, {"measurement": "IC50", "setting": "[1]; [3]", "value": 9.29, "unit": "µM"}]}, {"molecule": "COc1ccc(CC2CN(Cc3ccc(OCc4ccccc4)cc3)S(=O)(=O)N2C(C(=O)NO)C(C)C)cc1", "note": "(stereo not drawn) [Example 20, 2-(5-(4-Benzyloxybenzyl)-3-(4-methoxybenzyl)-1,1-dioxo-(1,2,5)thiadiazolidin-2-yl)-N-hydroxy-3-methylbutyramide]", "values": [{"measurement": "IC50", "setting": "MMP13", "value": 3.58, "unit": "µM"}]}]}
